From ChEMBL document CHEMBL1201862, “PubChem BioAssay data set” (2004)
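Grown in 96-well plates, cells were treated for 48 hours with each compound at five concentrations. Insufficient inhibition: endpoint recorded as highest concentration tested. GI50: concentration for 50% inhibition of growth.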 Activity calls are given as the source filed them. Rule as the data show it: active = GI50 up to about 1.1 µM and inactive = higher.

Tests used:
Assay in all cases: NCI-60 cell line screen, 48 h
[1] = test system: COLO 205
[2] = test system: EKVX
[3] = test system: HCC 2998
[4] = test system: HCT-15
[5] = test system: HL-60
[6] = test system: HT-29
[7] = test system: K562
[8] = test system: M14
[9] = test system: NCI-H226
[10] = test system: NCI-H23
[11] = test system: SF-268
[12] = test system: SF-295
[13] = test system: SK-MEL-28
[14] = test system: SK-MEL-5
[15] = test system: SR
[16] = test system: TK-10
[17] = test system: U-251
[18] = test system: UO-31
[19] = test system: 786-0
[20] = test system: SF-539

Structure (SMILES)	GI50 [1]	GI50 [2]	GI50 [3]	GI50 [4] [µM]	GI50 [5]	GI50 [6]	GI50 [7]	GI50 [8]	GI50 [9]	GI50 [10]	GI50 [11]	GI50 [12]	GI50 [13]	GI50 [14]	GI50 [15]	GI50 [16]	GI50 [17]	GI50 [18]	GI50 [19]	GI50 [20]
Fc1ccc(C(OCCN2CCN(CCCc3ccccc3)CC2)c2ccc(F)cc2)cc1	2.75 µM (inactive)	4.17 µM (inactive)	3.79 µM (inactive)	3.45	4.2 µM (inactive)	3.13 µM (inactive)	3.05 µM (inactive)	3.12 µM (inactive)	3.75 µM (inactive)	4.04 µM (inactive)	4.18 µM (inactive)	4.39 µM (inactive)	9.73 µM (inactive)	3.34 µM (inactive)	2.71 µM (inactive)	5.77 µM (inactive)	3.65 µM (inactive)	2.73 µM (inactive)		
COc1cccc(C(=O)C#Cc2cnc(OC)nc2OC)c1	1.77 µM (inactive)	1.72 µM (inactive)	6.43 µM (inactive)	0.2	0.682 µM (active)	1.09 µM (active)	0.356 µM (active)	1.21 µM (inactive)	1.11 µM (active)	1.98 µM (inactive)	2.49 µM (inactive)	14.2 µM (inactive)	2.04 µM (inactive)	1.24 µM (inactive)	0.108 µM (active)	1.43 µM (inactive)	2.84 µM (inactive)	1.37 µM (inactive)	1.83 µM (inactive)	
CC(C)(C)OC(=O)NC(Cc1ccccc1)C(=O)N[C@H]1c2ccsc2/C(=N/O)[C@H]1O (some centres undefined)	> 100 µM (inactive)	> 100 µM (inactive)	> 100 µM (inactive)	> 100	86.1 µM (inactive)	> 100 µM (inactive)	> 100 µM (inactive)	> 100 µM (inactive)	> 100 µM (inactive)	> 100 µM (inactive)		> 100 µM (inactive)		> 100 µM (inactive)	> 100 µM (inactive)	> 100 µM (inactive)	> 100 µM (inactive)	> 100 µM (inactive)		> 100 µM (inactive)
O=C1NC2CCCCCC2C12CCCCC2 (centres undefined)		> 100 µM (inactive)	> 100 µM (inactive)	> 100	> 100 µM (inactive)	> 100 µM (inactive)	> 100 µM (inactive)	> 100 µM (inactive)	> 100 µM (inactive)	> 100 µM (inactive)	> 100 µM (inactive)	> 100 µM (inactive)	> 100 µM (inactive)		> 100 µM (inactive)	> 100 µM (inactive)	> 100 µM (inactive)	> 100 µM (inactive)		> 100 µM (inactive)
c1ccc(N/N=C2\NN=C(c3ccccc3)CS2)cc1		12.4 µM (inactive)	4.74 µM (inactive)	4.59	3.58 µM (inactive)	6.89 µM (inactive)	3.34 µM (inactive)	6.73 µM (inactive)	16 µM (inactive)	17.9 µM (inactive)	5.18 µM (inactive)	7.46 µM (inactive)	16.3 µM (inactive)		4.3 µM (inactive)	11.5 µM (inactive)	> 10 µM (inactive)	12.9 µM (inactive)	15.7 µM (inactive)	18.1 µM (inactive)
CO[C@H]1c2cccc3cccc(c23)[C@@H]1n1[nH]c(=O)n(C(C)(C)C)c1=O	> 100 µM (inactive)	> 100 µM (inactive)	> 100 µM (inactive)	> 100	> 100 µM (inactive)	> 100 µM (inactive)	> 100 µM (inactive)	> 100 µM (inactive)	> 100 µM (inactive)	> 100 µM (inactive)	> 100 µM (inactive)		> 100 µM (inactive)		> 100 µM (inactive)	> 100 µM (inactive)	> 100 µM (inactive)	69.8 µM (inactive)	> 100 µM (inactive)	> 100 µM (inactive)
COC(=O)C1OC2(CCCC3CC32)O[C@H]1C(=O)OC (some centres undefined)	> 100 µM (inactive)	> 100 µM (inactive)	> 100 µM (inactive)	> 100	> 100 µM (inactive)	> 100 µM (inactive)	> 100 µM (inactive)	> 100 µM (inactive)	> 100 µM (inactive)	> 100 µM (inactive)	> 100 µM (inactive)	> 100 µM (inactive)	> 100 µM (inactive)		> 100 µM (inactive)	> 100 µM (inactive)	> 100 µM (inactive)	> 100 µM (inactive)	> 100 µM (inactive)	> 100 µM (inactive)
COc1ccc(Br)c(CN2CCc3ccccc32)c1OS(=O)(=O)c1ccc(C)cc1	11.9 µM (inactive)	58.7 µM (inactive)	6.31 µM (inactive)	25.1	5.15 µM (inactive)		4.75 µM (inactive)	13.9 µM (inactive)	> 100 µM (inactive)	23.9 µM (inactive)	23.7 µM (inactive)	19.5 µM (inactive)	46 µM (inactive)		43.7 µM (inactive)	8.02 µM (inactive)		51.2 µM (inactive)	23.7 µM (inactive)	15.6 µM (inactive)
O=C(Nc1ccn(C2CC(O)C(COC(c3ccccc3)(c3ccccc3)c3ccccc3)O2)c(=O)n1)c1ccccc1 (centres undefined)	2.09 µM (inactive)	4.27 µM (inactive)	7.36 µM (inactive)	2.59	2.61 µM (inactive)	1.71 µM (inactive)	2.92 µM (inactive)	2.3 µM (inactive)	11 µM (inactive)	1.33 µM (inactive)	5.06 µM (inactive)	1.96 µM (inactive)	3.08 µM (inactive)	2.33 µM (inactive)	2.44 µM (inactive)		3.5 µM (inactive)	6.81 µM (inactive)	1.98 µM (inactive)	3.36 µM (inactive)
Cc1ccc2nc(NC(=O)/C(Cc3nc4ccc(Cl)cc4nc3O)=N\NC(C)(C)C)sc2c1	> 100 µM (inactive)		> 100 µM (inactive)	90.6	> 100 µM (inactive)	> 100 µM (inactive)	> 100 µM (inactive)	> 100 µM (inactive)	9.59 µM (inactive)	> 100 µM (inactive)	97.9 µM (inactive)	36.1 µM (inactive)	> 100 µM (inactive)	> 10 µM (inactive)	> 100 µM (inactive)		> 100 µM (inactive)	59.6 µM (inactive)	> 100 µM (inactive)	> 100 µM (inactive)
COC(=O)C#CCC1CCCC1C1SCCS1 (centres undefined)	> 100 µM (inactive)	> 100 µM (inactive)	> 100 µM (inactive)		38.1 µM (inactive)	> 100 µM (inactive)	43.5 µM (inactive)	> 100 µM (inactive)	> 100 µM (inactive)	> 100 µM (inactive)	> 100 µM (inactive)	90.6 µM (inactive)	> 100 µM (inactive)	> 100 µM (inactive)	15.8 µM (inactive)	> 100 µM (inactive)	59.6 µM (inactive)	> 100 µM (inactive)	> 100 µM (inactive)	99.1 µM (inactive)
